Test results taken from patent US10294237B2, “Bicyclic heterocyclic amide derivative” (Sumitomo Dainippon Pharma Co., Ltd., priority 2015, dated 2019).
Structures can show the parent of a compound that is named as a salt.

Columns and labels:
[1] = tested on: HCT-116 cells; assay: Test for inhibiting sphere-forming ability of cancer cells; assay type: cell-based; details: HCT-116 spheres, non-adherent, serum-free, 4 days, CellTiter-Glo, read-out: IC50 (Sphere IC50 value; concentration for 50% inhibition of cell proliferation)
Description: (§1) The reliable methods established for measuring the self-renewal ability of cells which is one of the CSC's properties include a method for measuring the sphere-forming ability of cancer cells in non-adherent condition in the absence of serum (Cancer Res 65, 5506-5511 (2005)). HCT-116 cells were available from the American Type Culture Collection (ATCC). HCT-116 cells were cultured at 37° C. and 5% CO2 using the McCoy's 5a medium containing 10% fetal bovine serum (FBS) and 1% penicillin/streptomycin. HCT-116 cells were seeded in a 384 Well Black Clear Bottom Ultra-Low Attachment Microplate (Corning Cat. No. 3827) in an amount of 350-800 cells/well using the DMEM/F12 medium containing 2% B27 supplement (GIBCO), 20 ng/mL epidermal growth factor (EGF) (peprotech), 10 ng/mL basic fibroblast growth factor (bFGF) (peprotech), 5 μg/mL insulin (Sigma), and 1% penicillin/streptomycin. The test compounds were added into each well to adjust the final concentration of DMSO to 0.1%, and the cells were cultured for 4 days. The number of viable cells in each well was then measured with CellTiter-Glo® Luminescent Cell Viability Assay (Promega) to calculate the concentration of each test compound for 50% inhibition of cell proliferation (Sphere IC50 value; μmol/L).
The experiment of Test Example 1 was performed for the compounds of each Example. The concentrations of each test compound for 50% inhibition of cell profeliration (Sphere IC50 value; μmol/L) are shown in the following Table.

[2] = tested on: HCT-116 cells; assay: Test for inhibiting sphere-forming ability of cancer cells (in the presence of BSA); assay type: cell-based; details: HCT-116 spheres, non-adherent, 5% BSA, 4 days, CellTiter-Glo, read-out: IC50 (Sphere IC50 value; concentration for 50% inhibition of cell proliferation)
Description: as §1, with “HCT-116” for “The reliable methods established for measuring the self-renewal ability of cells which is one of the CSC's properties include a method for measuring the sphere-forming ability of cancer cells in non-adherent condition in the absence of serum (Cancer Res 65, 5506-5511 (2005)). HCT-116”, “(Sigma), 5% bovine serum albumin (BSA),” for “(Sigma),”
The experiment of Test Example 2 was performed for the compounds of each Example. The concentrations of each test compound for 50% inhibition of cell profeliration (Sphere IC50 value; μmol/L) are shown in the following Table.

Row | Structure (SMILES) | IC50 [1] | IC50 [2] | IC50 ([1]; Homo sapiens, 96 h) | IC50 ([2]; Homo sapiens, HCT-116, 96 h)
1 | O=C(Nc1cn(CCCc2ccccc2)cn1)c1cnc2c(c1)CCNC2 [Example 69] | 0.76 µM | 0.68 µM | – | –
2 | Cc1ccc(Cn2cnc(NC(=O)c3ccc4c(c3)CCNC4)c2)cc1 [Example 81] | 0.95 µM | 6.22 µM | – | –
3 | O=C(Nc1cn(Cc2cc(Br)cc(Br)c2)cn1)c1ccc2c(c1)CCNC2 [Example 96] | – | – | 0.06 µM | 0.2 µM
4 | Cc1ccccc1Cn1cnc(NC(=O)c2cnc3c(c2)CCNC3)c1 [Example 60] | 0.25 µM | 0.1 µM | – | –
5 | O=C(Nc1cn(Cc2ccc(Cl)c(Cl)c2)cn1)c1ccc2c(c1)CCNC2 [Example 102, N-[1-(3,4-dichlorobenzyl)-1H-imidazol-4-yl]-1,2,3,4-tetrahydroisoquinoline-6-carboxamide] | – | – | 0.06 µM | 0.06 µM
6 | O=C(Nc1cn(Cc2ccccc2)cn1)c1ccc2c(c1)CCNC2 [Example 71] | 0.92 µM | 0.77 µM | – | –
7 | O=C(Nc1cn(Cc2cccc(C(F)(F)F)c2)cn1)c1nc2c(s1)CCNC2 [Example 20] | – | – | 65.2 µM | –
8 | O=C(Nc1cn(Cc2cccc(Cl)c2)cn1)c1ccc2c(n1)CCNC2 [Example 44] | – | – | 0.78 µM | 0.58 µM
9 | O=C(Nc1cn(Cc2ccccc2F)cn1)c1ccc2c(c1)CCNC2 [Example 72] | 3.45 µM | 5.46 µM | – | –
10 | O=C(Nc1cn(Cc2ccc(C(F)(F)F)o2)cn1)c1ccc2c(c1)CCNC2 [Example 104] | – | – | 0.62 µM | 0.53 µM
11 | O=C(Nc1cn(Cc2ccc(Cl)cc2)cn1)c1ccc2c(c1)CCNC2 [Example 87] | 0.6 µM | 0.58 µM | – | –
12 | O=C1CCc2cc(C(=O)Nc3cn(Cc4cc(F)c(F)c(F)c4)cn3)ccc2N1 [Example 37] | – | – | 0.09 µM | 0.59 µM
13 | O=C(Nc1cn(Cc2cc(F)cc(Cl)c2)cn1)c1cnc2c(c1)CCNC2 [Example 52, N-[1-(3-chloro-5-fluorobenzyl)-1H-imidazol-4-yl]-5,6,7,8-tetrahydro-1,7-naphthyridine-3-carboxamide] | – | – | 0.06 µM | 0.06 µM
14 | O=C(/C=C/c1ccc2c(c1)CCNC2)Nc1cn(Cc2cc(F)c(F)c(F)c2)cn1 [Example 112] | – | – | 0.71 µM | 6.34 µM
15 | O=C(Nc1cn(Cc2cccc(C(F)(F)F)c2)cn1)c1ccc2c(c1F)CCNC2 [Example 15] | – | – | 0.36 µM | 0.55 µM
16 | O=C(Nc1cn(Cc2cccc(C(F)(F)F)c2)cn1)c1ccc2c(c1)CNC2 [Example 33] | – | – | 1.48 µM | –
17 | O=C(Nc1cn(Cc2cccc(C(F)(F)F)c2)cn1)c1ccc2c(c1)CCOC2 [Example 23] | – | – | 4.94 µM | –
18 | O=C(Nc1cn(Cc2cccc(C(F)(F)F)c2)cn1)c1ccc2c(c1)CCC1(C2)OCCO1 [Example 109, N-{1-[3-(Trifluoromethyl)benzyl]-1H-imidazol-4-yl}-3′,4′-dihydro-1′H-spiro[1,3-dioxolane-2,2′-naphthalene]-6′-carboxamide] | – | – | 7.07 µM | –
19 | CN1CCc2cc(C(=O)Nc3cn(Cc4cccc(C(F)(F)F)c4)cn3)ccc2C1 [Example 30, 2-Methyl-N-{1-[3-(trifluoromethyl)benzyl]-1H-imidazol-4-yl}-1,2,3,4-tetrahydroisoquinoline-6-carboxamide] | – | – | 6.16 µM | –
20 | CC(=O)N1CCc2cc(C(=O)Nc3cn(Cc4cccc(C(F)(F)F)c4)cn3)ccc2C1 [Example 108, 2-Acetyl-N-{1-[3-(trifluoromethyl)benzyl]-1H-imidazol-4-yl}-1,2,3,4-tetrahydroisoquinoline-6-carboxamide trifluoroacetate] | – | – | 6.63 µM | –
21 | O=C(Nc1cn(Cc2cccc(O)c2)cn1)c1ccc2c(c1)CCNC2 [Example 107] | – | – | – | 6.34 µM
22 | CC1(C)CNCc2ccc(C(=O)Nc3cn(Cc4cccc(C(F)(F)F)c4)cn3)cc21 [Example 32] | – | – | 72.3 µM | –
23 | O=C(Nc1cn(CC2CCOCC2)cn1)c1cnc2c(c1)CCNC2 [Example 118] | – | 6.18 µM | – | –
24 | Nc1cccc(Cn2cnc(NC(=O)c3cnc4c(c3)CCNC4)c2)c1 [Example 67] | – | 8.52 µM | – | –
25 | COc1ccc(Cn2cnc(NC(=O)c3ccc4c(c3)CCNC4)c2)cc1 [Example 84] | 6.78 µM | – | – | –
